From a compilation of properties of binary mixtures (doi:10.1007/s10953-010-9562-5)

Assay: xn = mol fraction of the nth substance listed
Conditions: 101 kPa

CCCC[N+]1(C)CCCC1.O=S(=O)([N-]S(=O)(=O)C(F)(F)F)C(F)(F)F + CC1COC(=O)O1
Conditions | electrical conductivity, 253.15 K [S/m] | electrical conductivity, 258.15 K [S/m] | electrical conductivity, 263.15 K [S/m] | electrical conductivity, 268.15 K [S/m] | electrical conductivity, 273.15 K [S/m] | electrical conductivity, 278.15 K [S/m] | electrical conductivity, 283.15 K [S/m] | electrical conductivity, 288.15 K [S/m] | electrical conductivity, 293.15 K [S/m] | viscosity, 293.15 K [mPa·s]
x2 = 0 | 0.017 | 0.031 | 0.045 | 0.072 | – | 0.152 | 0.193 | 0.249 | – | –
x2 = 0.05 | 0.021 | 0.037 | – | 0.082 | 0.122 | 0.168 | – | 0.271 | 0.328 | 70.58
x2 = 0.11 | – | 0.043 | 0.062 | 0.094 | 0.137 | 0.185 | 0.234 | 0.295 | 0.357 | 59.09
x2 = 0.16 | 0.032 | – | 0.073 | 0.108 | 0.154 | 0.205 | – | 0.322 | 0.388 | 50.53
x2 = 0.21 | – | 0.061 | 0.086 | 0.124 | 0.173 | 0.228 | 0.284 | 0.351 | 0.421 | 44.05
x2 = 0.26 | 0.049 | – | 0.102 | 0.143 | – | – | 0.313 | – | 0.458 | 38.97
x2 = 0.32 | 0.06 | 0.086 | 0.12 | 0.165 | 0.22 | 0.281 | 0.346 | 0.42 | 0.498 | 34.77
x2 = 0.37 | 0.074 | 0.102 | – | 0.19 | 0.249 | 0.312 | – | 0.459 | 0.542 | 31.1
x2 = 0.42 | 0.09 | 0.121 | 0.165 | 0.218 | – | 0.347 | 0.421 | 0.501 | 0.588 | 27.69
x2 = 0.47 | – | 0.144 | 0.193 | 0.251 | 0.316 | 0.385 | 0.464 | – | 0.638 | 24.42
x2 = 0.53 | 0.13 | 0.169 | – | 0.288 | 0.356 | 0.426 | 0.51 | 0.595 | – | –
x2 = 0.58 | 0.155 | – | 0.261 | 0.328 | 0.399 | 0.47 | – | 0.645 | 0.742 | 18.11
x2 = 0.63 | – | 0.231 | 0.3 | 0.372 | 0.444 | 0.516 | 0.606 | 0.696 | 0.794 | 15.13
x2 = 0.68 | 0.213 | 0.266 | 0.341 | – | 0.491 | 0.562 | – | 0.745 | – | –
x2 = 0.74 | 0.243 | 0.302 | 0.381 | 0.461 | – | 0.604 | 0.697 | – | – | –
x2 = 0.79 | – | 0.333 | 0.415 | 0.496 | 0.57 | 0.637 | 0.728 | – | – | –
x2 = 0.84 | 0.287 | 0.353 | 0.432 | 0.512 | 0.585 | 0.649 | 0.735 | 0.821 | – | –
x2 = 0.89 | – | 0.344 | – | 0.487 | 0.559 | 0.621 | – | 0.776 | – | –
x2 = 0.95 | 0.232 | 0.274 | 0.323 | 0.377 | 0.445 | – | – | 0.63 | – | –
x2 = 0.97 | 0.165 | 0.182 | 0.232 | 0.296 | 0.375 | 0.414 | – | 0.528 | – | –
